Experimental data as given in patent US7329798B2, “Harvest-inducible regulatory elements and methods of using same” (University of Guelph, priority 2002, dated 2008).

Key:
[1] = tested on: H7 regulatory region fused to GUS reporter gene in transgenic tobacco plants; assay: In planta induction of GUS expression by ABA (histochemical GUS assay); assay type: in vivo, tobacco (cultivar PetH4); conditions: plants sprayed with 25-50 mL 6.0 AM ABA in distilled water with Tween-20, left 24 h; non-treated plants exhibited no GUS activity
Experimental: Tobacco leaves from regenerated plants grown in the greenhouse, and leaves and stems from M. truncatula plants grown from the cocultivated seedlings were incubated in the X-gluc substrate and the green pigments removed for visualization of the blue precipitate resulting from GUS enzyme activity (Jefferson et al., 1987, EMBO J. 6:3901-7).
(§1) In order to test induction of the expression of transgenes using abscisic acid (ABA), the H7 promoter was fused to the beta-glucuronidase (GUS) reporter gene and histochemical assays conducted for GUS gene activity, which results in a blue colour in plant tissue (Jefferson et al., 1987, EMBO J. 6:3901-7). The promoter region for the H7 (nucleotides 1-634 of FIG. 8; SEQ ID NO:4) was fused to the 5′ terminus of the GUS gene in the binary vector pB1101 (Jefferson et al., 1987, EMBO J. 6:3901-7, FIG. 1a), as described in Example 4.
The binary vector was transferred tobacco plants (cultivar PetH4) using Agrobacterium tumefaciens, as previously described in Example 4.
(§2) Transgenic plants were grown to maturity, but prior to flowering, in a greenhouse at 23-25° C., with supplemental light to provide an approximately 16 h photoperiod and with 20-20-20 fertilizer as required.
Plants were sprayed with 25-50 mL 6.0 AM ABA (trans isomers ABA, Sigma) in distilled water, with a drop of Tween™-20 until the leaves were dripping. […]

[2] = tested on: H7 regulatory region fused to GUS reporter gene in transgenic tobacco callus; assay: In vitro induction of GUS expression by ABA in callus (histochemical GUS assay); assay type: cell-based, tobacco (cultivar PetH4); conditions: callus on solid media pH 5.0 with 40 μM ABA, 2 days, 25° C.
Source text: as §1, §2
Leaf discs were cut and surface sterilized using 3.5% bleach for 20 min, then washed with ethanol and rinsed three times with distilled water. The washed discs were plated in Petri dishes on original callusing media (MS medium supplemented with vitamins, 2.0 mg/L NAA, 0.2 mg/L BAP pH 5.8, 7 g/L agar solid media and 100 mg/L kanamycin). The Petri dishes were then placed in a dark incubator at 25° C. for 3 days. Following dark incubation, plated discs were then incubated at 25° C. with a 16 h photoperiod for 2-3 weeks.
Over this time, abundant callus (white or pale green) are formed, overgrowing the original tissue. […]

SMILES: CC1=CC(=O)CC(C)(C)[C@@]1(O)/C=C/C(C)=C\C(=O)O [ABA, abscisic acid]
- GUS activity in leaves [1]: GUS activity was detected
- GUS expression in callus [2]: GUS is expressed in the callus
